Values of other authors, collected in patent publication US20050090475A1, “Extended triphasic contraceptive regimens” (priority 2003, published 2005).

Experiments:
[1] = biological target: T1, endometrial progesterone receptors (Homo sapiens, UniProt P06401)
T1 sequence (P06401 1-933): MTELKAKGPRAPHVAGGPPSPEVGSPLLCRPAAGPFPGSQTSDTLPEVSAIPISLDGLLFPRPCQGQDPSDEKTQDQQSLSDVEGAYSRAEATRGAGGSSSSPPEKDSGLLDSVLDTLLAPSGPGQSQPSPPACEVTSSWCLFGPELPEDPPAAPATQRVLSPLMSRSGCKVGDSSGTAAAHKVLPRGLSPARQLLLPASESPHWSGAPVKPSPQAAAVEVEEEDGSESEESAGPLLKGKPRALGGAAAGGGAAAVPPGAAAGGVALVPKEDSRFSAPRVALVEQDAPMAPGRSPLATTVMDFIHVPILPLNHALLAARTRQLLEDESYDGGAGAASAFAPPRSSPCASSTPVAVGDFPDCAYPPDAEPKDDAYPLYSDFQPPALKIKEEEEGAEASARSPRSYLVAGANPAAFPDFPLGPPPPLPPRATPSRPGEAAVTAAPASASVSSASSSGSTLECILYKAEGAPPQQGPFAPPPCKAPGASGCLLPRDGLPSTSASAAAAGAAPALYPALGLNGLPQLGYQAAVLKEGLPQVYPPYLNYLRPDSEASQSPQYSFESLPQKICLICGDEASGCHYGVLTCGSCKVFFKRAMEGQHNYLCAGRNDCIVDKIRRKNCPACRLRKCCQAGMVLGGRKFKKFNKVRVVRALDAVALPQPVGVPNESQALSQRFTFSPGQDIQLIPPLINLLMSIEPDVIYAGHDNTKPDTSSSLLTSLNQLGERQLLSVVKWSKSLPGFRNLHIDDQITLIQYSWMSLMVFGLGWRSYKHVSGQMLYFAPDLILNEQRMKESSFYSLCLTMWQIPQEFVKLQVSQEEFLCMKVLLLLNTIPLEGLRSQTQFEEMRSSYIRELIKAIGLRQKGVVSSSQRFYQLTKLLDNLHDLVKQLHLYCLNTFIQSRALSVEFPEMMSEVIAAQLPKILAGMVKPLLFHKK

[2] = ovariectomized rat, compared with progesterone
[3] = system: serum hormone binding globulin (SHBG); conditions: in vivo
endometrium = conditions: animal models

- affinity for endometrial progesterone receptors [1]: high affinity
- effect on serum hormone binding globulin (SHBG) levels [3]: minimal effect
Compound: C#C[C@]1(OC(C)=O)CC[C@H]2[C@@H]3CCC4=CC(=NO)CC[C@@H]4[C@H]3CC[C@@]21CC (mixture of isomers) [norgestimate]
- maintenance of pregnancy [2]: maintains pregnancy as well as progesterone
- endometrium in comparison to other, more androgenic, progestins (endometrium): remains relatively thick and supported
